Measured values as given in US9169254B2, “Spiroimidazolone derivative” (Chugai Seiyaku Kabushiki Kaisha, priority 2009, dated 2015).

Molecular target: T1, human PTH1 receptor (Homo sapiens, UniProt Q03431)
T1 sequence (Q03431 27-593): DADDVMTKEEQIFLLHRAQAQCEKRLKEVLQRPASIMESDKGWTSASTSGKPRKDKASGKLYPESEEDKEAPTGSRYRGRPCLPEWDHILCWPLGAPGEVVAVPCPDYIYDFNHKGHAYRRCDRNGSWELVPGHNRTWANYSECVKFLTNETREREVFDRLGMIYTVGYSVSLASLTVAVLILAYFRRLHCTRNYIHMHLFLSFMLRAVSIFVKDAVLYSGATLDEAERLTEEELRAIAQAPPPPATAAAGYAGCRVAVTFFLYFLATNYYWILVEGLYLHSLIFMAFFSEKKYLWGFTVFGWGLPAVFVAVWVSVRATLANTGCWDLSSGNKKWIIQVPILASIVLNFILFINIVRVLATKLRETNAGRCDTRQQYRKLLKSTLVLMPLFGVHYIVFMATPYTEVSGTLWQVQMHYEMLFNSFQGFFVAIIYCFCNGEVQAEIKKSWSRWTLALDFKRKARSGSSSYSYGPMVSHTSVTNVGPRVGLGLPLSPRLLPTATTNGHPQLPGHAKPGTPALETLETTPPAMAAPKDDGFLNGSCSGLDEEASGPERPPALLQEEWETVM
Test: In vitro cAMP signal activity in HKRK-B7 cells (LLC-PK1 cells overexpressing the human PTH1 receptor)
Type: cell-based
Conditions: HKRK-B7 cells; compound at 1×10^−3 M; […]; 0.1 µM

| Compound | cAMP production activity (%) |
| --- | --- |
| Cc1cc(C(=O)N2CCC(F)(CO)CC2)ccc1CCS(=O)(=O)N1CCC2(CC1)N=C([C@H]1CC[C@H](CC=C(F)F)CC1)NC2=O [Compound 973, 2-[4-(3,3-Difluoro-allyl)-cyclohexyl]-8-{2-[4-(4-fluoro-4-hydroxymethyl-piperidine-1-carbonyl)-2-methyl-phenyl}-ethanesulfonyl]-1,3,8-triaza-spiro[4.5]dec-1-en-4-one] | 112% |

Same assay, conditions: HKRK-B7 cells; compound at 1×10^−3 M; cAMP produced as percentage of that produced by hPTH(1-34) at 100 nM

| Compound | cAMP production activity (%) |
| --- | --- |
| Cc1cc(C(=O)N2CCC(O)CC2)cc(C)c1CC(F)(F)S(=O)(=O)N1CCC2(CC1)N=C(c1cccc(OC(F)(F)F)c1)NC2=O [Compound 1101, 8-{1,1-Difluoro-2-[4-(4-hydroxy-piperidine-1-carbonyl)-2,6-dimethyl-phenyl]-ethanesulfonyl}-2-(3-trifluoromethoxy-phenyl)-1,3,8-triaza-spiro[4.5]dec-1-en-4-one] | 110% |
| COc1cc(NC(C)=O)ccc1CCS(=O)(=O)N1CCC2(CC1)N=C(C1CCC(C)CC1)NC2=O (stereo not drawn) [Compound 655, N-(3-Methoxy-4-{2-[2-(4-methyl-cyclohexyl)-4-oxo-1,3,8-triaza-spiro[4.5]dec-1-ene-8-sulfonyl]-ethyl}-phenyl)-acetamide] | 74% |
| Cc1cc(OC[C@H](O)CO)cc(C)c1/C=C/S(=O)(=O)N1CCC2(CC1)N=C(c1ccc(F)c(C(F)(F)F)c1)NC2=O [Compound 242, 8-{(E)-2-[4-((R)-2,3-Dihydroxy-propoxy)-2,6-dimethyl-phenyl]-ethenesulfonyl}-2-(4-fluoro-3-trifluoromethyl-phenyl)-1,3,8-triaza-spiro[4.5]dec-1-en-4-one] | 75% |
| CCCc1ccc(-c2cccc(C3=NC4(CCN(S(=O)(=O)/C=C/c5c(C)cc(N(C)C(N)=O)cc5C)CC4)C(=O)N3)c2)cc1 [Compound 1114, 1-(3,5-Dimethyl-4-{(E)-2-[4-oxo-2-(4′-propyl-biphenyl-3-yl)-1,3,8-triaza-spiro[4.5]dec-1-ene-8-sulfonyl]-vinyl}-phenyl)-1-methyl-urea] | 95% |
| Cc1cc(C(=O)N2CC3(COC3)C2)cc(C)c1/C=C/S(=O)(=O)N1CCC2(CC1)N=C(c1ccc(F)c(C(F)(F)F)c1)NC2=O [Compound 967, 8-{(E)-2-[2,6-Dimethyl-4-(2-oxa-6-aza-spiro[3.3]heptane-6-carbonyl)-phenyl]-ethenesulfonyl}-2-(4-fluoro-3-trifluoromethyl-phenyl)-1,3,8-triaza-spiro[4.5]dec-1-en-4-one] | 44% |
| Cc1cc(C(=O)N2CCN(C(C)C)CC2)ccc1/C=C/S(=O)(=O)N1CCC2(CC1)N=C(c1cccc(OC(F)(F)F)c1)NC2=O [Compound 598, 8-{(E)-2-[4-(4-isopropyl-piperazine-1-carbonyl)-2-methyl-phenyl]-ethenesulfonyl}-2-(3-trifluoromethoxy-phenyl)-1,3,8-triaza-spiro[4.5]dec-1-en-4-one] | 74% |
| CCCCCCCC#CC1=NC2(CCN(S(=O)(=O)/C=C/c3c(C)cc(N(C)C(N)=O)cc3C)CC2)C(=O)N1 [Compound 1027, 1-{3,5-dimethyl-4-[(E)-2-(2-non-1-ynyl-4-oxo-1,3,8-triaza-spiro[4.5]dec-1-ene-8-sulfonyl)-vinyl]-phenyl}-1-methyl-urea] | 82% |
| Cc1cc2ccc1CCS(=O)(=O)N1CCC3(CC1)N=C(NC3=O)c1cc(cc(C(F)(F)F)c1)OCC/C=C/CO[C@H]1CN(C[C@@H]1O)C2=O [Compound 1424] | 29% |
| O=C1NC(C2CCCCC2)=NC12CCN(S(=O)(=O)C/C=C/c1cccc3c1ccn3C[C@H](O)CO)CC2 [Compound 253, 2-Cyclohexyl-8-{(E)-3-[1-((S)-2,3-dihydroxy-propyl)-1H-indol-4-yl]-prop-2-ene-1-sulfonyl}-1,3,8-triaza-spiro[4.5]dec-1-en-4-one] | 54% |
| COC(=O)Nc1ccc(C)c(/C=C/S(=O)(=O)N2CCC3(CC2)N=C(C2CCCCC2)NC3=O)c1 [Compound 197, {3-[(E)-2-(2-cyclohexyl-4-oxo-1,3,8-triaza-spiro[4.5]dec-1-ene-8-sulfonyl)-vinyl]-4-methyl-phenyl}-carbamic acid methyl ester] | 41% |
| Cc1cc(N(C)C(N)=O)cc(C)c1CCS(=O)(=O)N1CCC2(CC1)N=C(c1cccc(OC(F)(F)C(F)F)c1)NC2=O [Compound 1038, 1-[3,5-Dimethyl-4-(2-{4-oxo-2-[3-(1,1,2,2-tetrafluoro-ethoxy)-phenyl]-1,3,8-triaza-spiro[4.5]dec-1-ene-8-sulfonyl}-ethyl)-phenyl]-1-methyl-urea] | 111% |
| CO/N=C1\NC(c2cccc(OC(F)(F)F)c2)=NC12CCN(S(=O)(=O)CCc1ccc(C(=O)N(C)C)cc1C)CC2 [Compound 901, 4-{2-[4-[(Z)-methoxyimino]-2-(3-trifluoromethoxy-phenyl)-1,3,8-triaza-spiro[4.5]dec-1-ene-8-sulfonyl]-ethyl}-3,N,N-trimethyl-benzamide] | 1.9% |
| Cc1cc(C(=O)N2CCC(O)(C(F)(F)F)CC2)cc(C)c1/C=C/S(=O)(=O)N1CCC2(CC1)N=C(C1CCCCC1)NC2=O [Compound 1006, 2-Cyclohexyl-8-{(E)-2-[4-(4-hydroxy-4-trifluoromethyl-piperidine-1-carbonyl)-2,6-dimethyl-phenyl]-ethenesulfonyl}-1,3,8-triaza-spiro[4.5]dec-1-en-4-one] | 52% |
| CC(=O)N(c1cc(C)c(/C=C/S(=O)(=O)N2CCC3(CC2)N=C(c2cccc(OC(F)(F)F)c2)NC3=O)c(C)c1)C1CCOCC1 [Compound 616, N-(3,5-dimethyl-4-{(E)-2-[4-oxo-2-(3-trifluoromethoxy-phenyl)-1,3,8-triaza-spiro[4.5]dec-1-ene-8-sulfonyl]-vinyl}-phenyl)-N-(tetrahydro-pyran-4-yl)-acetamide] | 94% |
| Cc1cc(N(C)C(N)=O)cc(C)c1/C=C/S(=O)(=O)N1CCC2(CC1)N=C(c1cccc(OC(F)(F)F)c1)NC2=O [Compound 1015, 1-(3,5-dimethyl-4-{(E)-2-[4-oxo-2-(3-trifluoromethoxy-phenyl)-1,3,8-triaza-spiro[4.5]dec-1-ene-8-sulfonyl]-vinyl}-phenyl)-1-methyl-urea] | 83% |
| CNc1cc(C)c(/C=C/[S@TB3](=O)(=O)N2CCC3(CC2)N=C(CCCCCCCCCCCNC(=O)OC(C)(C)C)NC3=O)c(C)c1 [Compound 1106, (11-{8-[(E)-2-(2,6-dimethyl-4-methylamino-phenyl)-ethenesulfonyl]-4-oxo-1,3,8-triaza-spiro[4.5]dec-1-en-2-yl}-undecyl)-carbamic acid tert-butyl ester] | 58% |
| O=C1NC(C2CCCCC2)=NC12CCN(S(=O)(=O)CCc1cccc3c1ccn3CCCCO)CC2 [Compound 651, 2-cyclohexyl-8-{2-[1-(4-hydroxy-butyl)-1H-indol-4-yl]-ethanesulfonyl}-1,3,8-triaza-spiro[4.5]dec-1-en-4-one] | 54% |
| Cc1cc(C(=O)N2CCS(=O)(=O)CC2)cc(C)c1CCS(=O)(=O)N1CCC2(CC1)N=C(C1CCC(C)CC1)NC2=O (stereo not drawn) [Compound 1183, 8-{2-[4-(1,1-dioxo-1λ^6-thiomorpholine-4-carbonyl)-2,6-dimethyl-phenyl]-ethanesulfonyl}-2-(4-methyl-cyclohexyl)-1,3,8-triaza-spiro[4.5]dec-1-en-4-one] | 90% |
| Cc1cc(C(=O)N(C)C)cc(C)c1/C=C/S(=O)(=O)N1CCC2(CC1)N=C(c1cccc(C(F)(F)F)c1)NC2=O [Compound 383, 3,5,N,N-Tetramethyl-4-{(E)-2-[4-oxo-2-(3-trifluoromethyl-phenyl)-1,3,8-triaza-spiro[4.5]dec-1-ene-8-sulfonyl]-vinyl}-benzamide] | 72% |
| CC[C@H]1CC[C@H](C2=NC3(CCN(S(=O)(=O)CCc4ccc(N5C(=O)NC(=O)C5(C)C)cc4C)CC3)C(=O)N2)CC1 [Compound 887, 1-(4-{2-[2-(4-ethyl-cyclohexyl)-4-oxo-1,3,8-triaza-spiro[4.5]dec-1-ene-8-sulfonyl]-ethyl}-3-methyl-phenyl)-5,5-dimethyl-imidazolidine-2,4-dione] | 58% |
| Cc1ccc(C2=NC3(CCN(S(=O)(=O)/C=C/c4c(C)cc(C(=O)N5CCC(C)(O)CC5)cc4C)CC3)C(=O)N2)cc1C [Compound 1237, 2-(3,4-dimethyl-phenyl)-8-{(E)-2-[4-(4-hydroxy-4-methyl-piperidine-1-carbonyl)-2,6-dimethyl-phenyl]-ethenesulfonyl}-1,3,8-triaza-spiro[4.5]dec-1-en-4-one] | 96% |
| CC(=O)Nc1cccc(C)c1CCS(=O)(=O)N1CCC2(CC1)N=C(C1CCCCC1)NC2=O [Compound 276, N-{2-[2-(2-cyclohexyl-4-oxo-1,3,8-triaza-spiro[4.5]dec-1-ene-8-sulfonyl)-ethyl]-3-methyl-phenyl}-acetamide] | 63% |
| Cc1cc(C2=NC3(CCN(S(=O)(=O)/C=C/c4c(C)cc(C(=O)N5CCC(O)(CF)CC5)cc4C)CC3)C(=O)N2)ccc1OC(F)(F)F [Compound 1258, 8-{(E)-2-[4-(4-fluoromethyl-4-hydroxy-piperidine-1-carbonyl)-2,6-dimethyl-phenyl]-ethenesulfonyl}-2-(3-methyl-4-trifluoromethoxy-phenyl)-1,3,8-triaza-spiro[4.5]dec-1-en-4-one] | 116% |
